Laboratory results from patent US20130157953A1, “TREATMENT OF CARDIAC CONDITIONS” (Zealand Pharma A/S, priority 2010, published 2013).
Numbered stars: 1 amine (or outer) side, 2 acyl side, 3 side chain; on linkers, the order of the positions; unused ones are H or OH. Bridge positions count the residues as written; N and C are the ends. Square brackets hold non-standard residues; d marks the D form. Side chains are listed from the residue outwards. Peptide text beside a SMILES is read from it. * marks the point of attachment. γGlu = O=C(O)[C@H](CCC(=O)[*:2])N[*:1]; εLys = N[C@@H](CCCCN[*:1])C(=O)[*:2]; Palmitoyl = CCCCCCCCCCCCCCCC(=O)*; Aib = CC(C)(N)C(=O)O

B1: Compound 217 (peptide)
peptide: H-H[Aib]QGTFTSDYSKYLDSK([εLys-Palmitoyl])AAHDFVEWLLSA-NH2
SMILES: CCCCCCCCCCCCCCCC(=O)NCCCC[C@H](N)C(=O)NCCCC[C@H](NC(=O)[C@H](CO)NC(=O)[C@H](CC(=O)O)NC(=O)[C@H](CC(C)C)NC(=O)[C@H](Cc1ccc(O)cc1)NC(=O)[C@H](CCCCN)NC(=O)[C@H](CO)NC(=O)[C@H](Cc1ccc(O)cc1)NC(=O)[C@H](CC(=O)O)NC(=O)[C@H](CO)NC(=O)[C@@H](NC(=O)[C@H](Cc1ccccc1)NC(=O)[C@@H](NC(=O)CNC(=O)[C@H](CCC(N)=O)NC(=O)C(C)(C)NC(=O)[C@@H](N)Cc1c[nH]cn1)[C@@H](C)O)[C@@H](C)O)C(=O)N[C@@H](C)C(=O)N[C@@H](C)C(=O)N[C@@H](Cc1c[nH]cn1)C(=O)N[C@@H](CC(=O)O)C(=O)N[C@@H](Cc1ccccc1)C(=O)N[C@H](C(=O)N[C@@H](CCC(=O)O)C(=O)N[C@@H](Cc1c[nH]c2ccccc12)C(=O)N[C@@H](CC(C)C)C(=O)N[C@@H](CC(C)C)C(=O)N[C@@H](CO)C(=O)N[C@@H](C)C(N)=O)C(C)C

The molecules below were run against human glucagon-like peptide 1 receptor (GLP-1R) (human, UniProt P43220 24-463) (assay: cell-based or functional assay). Details: not given.
With B1 the “EC50 (nM) GLP-1R; cAMP content, HEK293 cells expressing human GLP-1R” value was 0.09 nM.

The molecules below were run against human glucagon receptor (Glucagon-R) (human, UniProt P47871 26-477) (assay: cell-based or functional assay). Details: not given.
Chain of human glucagon receptor (Glucagon-R) (P47871 26-477): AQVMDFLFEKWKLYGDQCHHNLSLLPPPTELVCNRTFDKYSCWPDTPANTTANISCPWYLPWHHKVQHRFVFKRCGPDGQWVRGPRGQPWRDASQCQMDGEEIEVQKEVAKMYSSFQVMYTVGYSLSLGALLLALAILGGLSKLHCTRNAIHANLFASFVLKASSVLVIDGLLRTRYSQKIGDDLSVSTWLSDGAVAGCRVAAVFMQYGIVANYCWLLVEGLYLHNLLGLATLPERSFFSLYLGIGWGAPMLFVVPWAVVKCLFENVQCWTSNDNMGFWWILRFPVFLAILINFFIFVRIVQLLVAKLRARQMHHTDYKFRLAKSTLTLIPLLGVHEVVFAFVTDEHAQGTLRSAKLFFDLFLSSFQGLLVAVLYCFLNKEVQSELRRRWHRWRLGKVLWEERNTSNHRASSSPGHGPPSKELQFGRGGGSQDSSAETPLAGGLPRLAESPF
For B1, the “EC50 (nM) GuR; cAMP content, HEK293 cells expressing the human glucagon receptor” value was 0.39 nM.

What follows are molecules tested against T1, human GLP-1R (Homo sapiens, UniProt P43220) (assay: cAMP formation in HEK293 cells expressing human GLP-1R). Details: 15 min at 37° C.
T1 construct: expressed in transfected cells; host or cells: HEK293
T1 sequence (P43220 24-463): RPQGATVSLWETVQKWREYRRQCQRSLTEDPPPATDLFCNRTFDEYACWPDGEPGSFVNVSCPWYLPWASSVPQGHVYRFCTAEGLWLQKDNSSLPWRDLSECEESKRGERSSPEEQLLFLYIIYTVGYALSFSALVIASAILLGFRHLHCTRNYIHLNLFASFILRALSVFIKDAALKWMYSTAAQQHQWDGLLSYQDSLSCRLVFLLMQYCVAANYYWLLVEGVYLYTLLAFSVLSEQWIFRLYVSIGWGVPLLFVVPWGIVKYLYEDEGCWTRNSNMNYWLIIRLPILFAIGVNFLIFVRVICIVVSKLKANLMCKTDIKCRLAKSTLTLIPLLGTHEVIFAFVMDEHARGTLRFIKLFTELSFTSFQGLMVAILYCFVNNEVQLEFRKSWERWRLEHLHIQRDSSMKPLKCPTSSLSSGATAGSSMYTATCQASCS
Assay type: cell-based
Source text: Similarly, activation of the GLP-1 receptor by a GLP-1 agonist will stimulate cellular cAMP formation. Thus, production of cAMP in suitable cells expressing one of these two receptors can be used to monitor the relevant receptor activity.
The skilled person will be aware of suitable assay formats, and examples are provided below. […] (Where sequences of precursor proteins are referred to, it should of course be understood that assays may make use of the mature protein, lacking the signal sequence).
On the day of analysis, growth medium was removed and the cells washed once with 200 μl Tyrode buffer. Cells were incubated in […] containing increasing concentrations of test peptides, 100 μM IBMX, and 6 mM glucose for 15 min at 37° C. The reaction was stopped by addition of 25 μl 0.5 M HCl and incubated on ice for 60 min. The cAMP content was estimated using the FlashPlate® cAMP kit from Perkin-Elmer. EC50 values were estimated by computer aided curve fitting.
In the case of “H-HSQGTFTSDYSRYLDSRRAKDFVWLLNT-NH2 [Compound 252]”, the EC50 is reported as 0.5 nM.
Molecule CCCCCCCCCCCCCCCC(=O)N[C@@H](CCC(=O)NCCCC[C@H](NC(=O)[C@H](CO)NC(=O)[C@H](CC(=O)O)NC(=O)[C@H](CC(C)C)NC(=O)[C@H](Cc1ccc(O)cc1)NC(=O)[C@H](CCCCN)NC(=O)[C@H](CO)NC(=O)[C@H](Cc1ccc(O)cc1)NC(=O)[C@H](CC(=O)O)NC(=O)[C@H](CO)NC(=O)[C@@H](NC(=O)[C@H](Cc1ccccc1)NC(=O)[C@@H](NC(=O)CNC(=O)[C@H](CCC(N)=O)NC(=O)[C@H](CO)NC(=O)[C@@H](N)Cc1c[nH]cn1)[C@@H](C)O)[C@@H](C)O)C(=O)N[C@@H](C)C(=O)N[C@@H](C)C(=O)N[C@@H](Cc1c[nH]cn1)C(=O)N[C@@H](CC(=O)O)C(=O)N[C@@H](Cc1ccccc1)C(=O)N[C@H](C(=O)N[C@@H](CCC(=O)O)C(=O)N[C@@H](Cc1c[nH]c2ccccc12)C(=O)N[C@@H](CC(C)C)C(=O)N[C@@H](CC(C)C)C(=O)N[C@@H](CCCNC(=N)N)C(=O)N[C@@H](C)C(N)=O)C(C)C)C(=O)O [Compound 262] (H-HSQGTFTSDYSKYLDSK([γGlu-Palmitoyl])AAHDFVEWLLRA-NH2) has an EC50 of 0.11 nM.
Molecule CCCCCCCCCCCCCCCC(=O)N[C@@H](CCC(=O)NCCCC[C@H](NC(=O)[C@H](CC(=O)O)NC(=O)[C@H](CC(C)C)NC(=O)[C@H](Cc1ccc(O)cc1)NC(=O)[C@H](CCCCN)NC(=O)[C@H](CO)NC(=O)[C@H](Cc1ccc(O)cc1)NC(=O)[C@H](CC(=O)O)NC(=O)[C@H](CO)NC(=O)[C@@H](NC(=O)[C@H](Cc1ccccc1)NC(=O)[C@@H](NC(=O)CNC(=O)[C@H](CCC(N)=O)NC(=O)[C@H](CO)NC(=O)[C@@H](N)Cc1c[nH]cn1)[C@@H](C)O)[C@@H](C)O)C(=O)N[C@@H](CCCCN)C(=O)N[C@@H](C)C(=O)N[C@@H](C)C(=O)N[C@@H](Cc1c[nH]cn1)C(=O)N[C@@H](CC(=O)O)C(=O)N[C@@H](Cc1ccccc1)C(=O)N[C@H](C(=O)N[C@@H](CCC(=O)O)C(=O)N[C@@H](Cc1c[nH]c2ccccc12)C(=O)N[C@@H](CC(C)C)C(=O)N[C@@H](CC(C)C)C(=O)N[C@@H](CCCNC(=N)N)C(=O)N[C@@H](C)C(N)=O)C(C)C)C(=O)O [Compound 202] (H-HSQGTFTSDYSKYLDK([γGlu-Palmitoyl])KAAHDFVEWLLRA-NH2) has an EC50 of 0.2 nM.
Molecule CSCC[C@H](NC(=O)[C@H](CC(C)C)NC(=O)[C@H](Cc1c[nH]c2ccccc12)NC(=O)[C@@H](NC(=O)[C@H](Cc1ccccc1)NC(=O)[C@H](CC(=O)O)NC(=O)[C@@H]1CCC(=O)NCCCC[C@H](NC(=O)[C@H](CC(=O)O)NC(=O)[C@H](CC(C)C)NC(=O)[C@H](Cc2ccc(O)cc2)NC(=O)[C@H](CCCCN)NC(=O)[C@H](CO)NC(=O)[C@H](Cc2ccc(O)cc2)NC(=O)[C@H](CC(=O)O)NC(=O)[C@H](CO)NC(=O)[C@@H](NC(=O)[C@H](Cc2ccccc2)NC(=O)[C@@H](NC(=O)CNC(=O)[C@H](CCC(N)=O)NC(=O)[C@H](CO)NC(=O)[C@@H](N)Cc2c[nH]cn2)[C@@H](C)O)[C@@H](C)O)C(=O)N[C@@H](CCCNC(=N)N)C(=O)N[C@@H](CCCNC(=N)N)C(=O)N[C@@H](C)C(=O)N1)C(C)C)C(=O)N[C@@H](CC(N)=O)C(=O)N[C@H](C(N)=O)[C@@H](C)O [Compound 257] (H-HSQGTFTSDYSKYLDKRRAEDFVWLMNT-NH2; lactam 16-20) has an EC50 of 0.1 nM.
Work on CC(C)C[C@H](NC(=O)[C@H](CC(C)C)NC(=O)[C@H](Cc1c[nH]c2ccccc12)NC(=O)[C@H](CCC(=O)O)NC(=O)[C@@H](NC(=O)[C@H](Cc1ccccc1)NC(=O)[C@H](CC(=O)O)NC(=O)[C@H](Cc1c[nH]cn1)NC(=O)[C@H](C)NC(=O)[C@H](C)NC(=O)[C@H](CCCCN)NC(=O)[C@H](CO)NC(=O)[C@H](CC(=O)O)NC(=O)[C@H](CC(C)C)NC(=O)[C@H](Cc1ccc(O)cc1)NC(=O)[C@H](CCCCN)NC(=O)[C@H](CO)NC(=O)[C@H](Cc1ccc(O)cc1)NC(=O)[C@H](CC(=O)O)NC(=O)[C@H](CO)NC(=O)[C@@H](NC(=O)[C@H](Cc1ccccc1)NC(=O)[C@@H](NC(=O)CNC(=O)[C@H](CCC(N)=O)NC(=O)[C@@H](CO)NC(=O)[C@@H](N)Cc1c[nH]cn1)[C@@H](C)O)[C@@H](C)O)C(C)C)C(=O)N[C@@H](CCCNC(=N)N)C(=O)N[C@@H](C)C(N)=O [Compound 44] (H-H[dS]QGTFTSDYSKYLDSKAAHDFVEWLLRA-NH2) yielded an EC50 of 0.09 nM.
In the case of CCCCCCCCCCCCCCCC(=O)NCCCC[C@H](N)C(=O)NCCCC[C@H](NC(=O)[C@H](CO)NC(=O)[C@H](CC(=O)O)NC(=O)[C@H](CC(C)C)NC(=O)[C@H](Cc1ccc(O)cc1)NC(=O)[C@H](CCCCN)NC(=O)[C@H](CO)NC(=O)[C@H](Cc1ccc(O)cc1)NC(=O)[C@H](CC(=O)O)NC(=O)[C@H](CO)NC(=O)[C@@H](NC(=O)[C@H](Cc1ccccc1)NC(=O)[C@@H](NC(=O)CNC(=O)[C@H](CCC(N)=O)NC(=O)C(C)(C)NC(=O)[C@@H](N)Cc1c[nH]cn1)[C@@H](C)O)[C@@H](C)O)C(=O)N[C@@H](C)C(=O)N[C@@H](C)C(=O)N[C@@H](Cc1c[nH]cn1)C(=O)N[C@@H](CC(=O)O)C(=O)N[C@@H](Cc1ccccc1)C(=O)N[C@H](C(=O)N[C@@H](CCC(=O)O)C(=O)N[C@@H](Cc1c[nH]c2ccccc12)C(=O)N[C@@H](CC(C)C)C(=O)N[C@@H](CC(C)C)C(=O)N[C@@H](CO)C(=O)N[C@@H](C)C(N)=O)C(C)C [Compound 217], the EC50 is reported as 0.09 nM.
CCCCCCCCCCCCCCCC(=O)NCCCCCCCC(=O)NCCCC[C@H](NC(=O)[C@H](CO)NC(=O)[C@H](CC(=O)O)NC(=O)[C@H](CC(C)C)NC(=O)[C@H](Cc1ccc(O)cc1)NC(=O)[C@H](CCCCN)NC(=O)[C@H](CO)NC(=O)[C@H](Cc1ccc(O)cc1)NC(=O)[C@H](CC(=O)O)NC(=O)[C@H](CO)NC(=O)[C@@H](NC(=O)[C@H](Cc1ccccc1)NC(=O)[C@@H](NC(=O)CNC(=O)[C@H](CCC(N)=O)NC(=O)C(C)(C)NC(=O)[C@@H](N)Cc1c[nH]cn1)[C@@H](C)O)[C@@H](C)O)C(=O)N[C@@H](C)C(=O)N[C@@H](C)C(=O)N[C@@H](Cc1c[nH]cn1)C(=O)N[C@@H](CC(=O)O)C(=O)N[C@@H](Cc1ccccc1)C(=O)N[C@H](C(=O)N[C@@H](CCC(=O)O)C(=O)N[C@@H](Cc1c[nH]c2ccccc12)C(=O)N[C@@H](CC(C)C)C(=O)N[C@@H](CC(C)C)C(=O)N[C@@H](CO)C(=O)N[C@@H](C)C(N)=O)C(C)C [Compound 216] was tested, and the EC50 was 0.24 nM.
CCCCCCCCCCCCCCCC(=O)NCCC(=O)NCCCC[C@H](NC(=O)[C@H](CO)NC(=O)[C@H](CC(=O)O)NC(=O)[C@H](CC(C)C)NC(=O)[C@H](Cc1ccc(O)cc1)NC(=O)[C@H](CCCCN)NC(=O)[C@H](CO)NC(=O)[C@H](Cc1ccc(O)cc1)NC(=O)[C@H](CC(=O)O)NC(=O)[C@H](CO)NC(=O)[C@@H](NC(=O)[C@H](Cc1ccccc1)NC(=O)[C@@H](NC(=O)CNC(=O)[C@H](CCC(N)=O)NC(=O)C(C)(C)NC(=O)[C@@H](N)Cc1c[nH]cn1)[C@@H](C)O)[C@@H](C)O)C(=O)N[C@@H](C)C(=O)N[C@@H](C)C(=O)N[C@@H](Cc1c[nH]cn1)C(=O)N[C@@H](CC(=O)O)C(=O)N[C@@H](Cc1ccccc1)C(=O)N[C@H](C(=O)N[C@@H](CCC(=O)O)C(=O)N[C@@H](Cc1c[nH]c2ccccc12)C(=O)N[C@@H](CC(C)C)C(=O)N[C@@H](CC(C)C)C(=O)N[C@@H](CO)C(=O)N[C@@H](C)C(N)=O)C(C)C [Compound 215] was tested, and the EC50 was 0.23 nM.
CCCCCCCCCCCCCCCC(=O)N[C@@H](CCC(=O)NCCCC[C@H](NC(=O)[C@H](CO)NC(=O)[C@H](CC(=O)O)NC(=O)[C@H](CC(C)C)NC(=O)[C@H](Cc1ccc(O)cc1)NC(=O)[C@H](CCCCN)NC(=O)[C@H](CO)NC(=O)[C@H](Cc1ccc(O)cc1)NC(=O)[C@H](CC(=O)O)NC(=O)[C@H](CO)NC(=O)[C@@H](NC(=O)[C@H](Cc1ccccc1)NC(=O)[C@@H](NC(=O)CNC(=O)[C@H](CCC(N)=O)NC(=O)C(C)(C)NC(=O)[C@@H](N)Cc1c[nH]cn1)[C@@H](C)O)[C@@H](C)O)C(=O)N[C@@H](C)C(=O)N[C@@H](C)C(=O)N[C@@H](Cc1c[nH]cn1)C(=O)N[C@@H](CC(=O)O)C(=O)N[C@@H](Cc1ccccc1)C(=O)N[C@H](C(=O)N[C@H]1CCC(=O)NCCCC[C@@H](C(=O)N[C@@H](C)C(N)=O)NC(=O)[C@H](CC(C)C)NC(=O)[C@H](CC(C)C)NC(=O)[C@H](Cc2c[nH]c3ccccc23)NC1=O)C(C)C)C(=O)O [Compound 210] (H-H[Aib]QGTFTSDYSKYLDSK([γGlu-Palmitoyl])AAHDFVEWLLKA-NH2; lactam 24-28) gave an EC50 of 0.08 nM.
